{"source": "ChEMBL document CHEMBL6153084", "about": "“The development of α, β-unsaturated lactam-based andrographolide derivatives as anti-gastric cancer agents with the ability of inhibiting the ERK/c-Fos/Jun pathway” (Eur J Med Chem, 2025)", "data": [{"system": "MGC-803", "assay": "Antiproliferative activity against human MGC-803 cells assessed as inhibition of cell growth incubated for 24 to 72 hrs by MTT assay", "format": "functional, cell-based", "units": {"IC50": "µM"}, "values": [{"smiles": "C=C1CC[C@@H]2[C@](C)(CO)[C@H](O)CC[C@@]2(C)[C@@H]1/C=C/C1=CC(=C/c2cccc(C)c2)/NC1=O", "IC50": 4.56}, {"smiles": "C=C1CC[C@@H]2[C@](C)(CO)[C@H](O)CC[C@@]2(C)[C@@H]1/C=C/C1=CC(=C\\c2ccccc2)/NC1=O", "IC50": 17.6}, {"smiles": "C=C1CC[C@@H]2[C@](C)(CO)[C@H](O)CC[C@@]2(C)[C@@H]1/C=C/C(=C/C(=O)Cc1ccc(Cl)cc1)C(=O)N1CCN(CCO)CC1", "IC50": "> 50"}, {"smiles": "C=C1CC[C@@H]2[C@](C)(CO)[C@H](O)CC[C@@]2(C)[C@@H]1/C=C/C1=CC(=C/c2cccc(C)c2C)/NC1=O", "IC50": 14.1}, {"smiles": "C=C1CC[C@@H]2[C@](C)(CO)[C@H](O)CC[C@@]2(C)[C@@H]1/C=C/C(=C/C(=O)Cc1ccc(Cl)cc1)C(=O)N1CCOCC1", "IC50": "> 50"}, {"smiles": "C=C1CC[C@@H]2[C@](C)(CO)[C@H](O)CC[C@@]2(C)[C@@H]1C/C=C1/C(=O)OC[C@H]1O", "note": "[ANDROGRAPHOLIDE]", "IC50": 31.8}, {"smiles": "C=C1CC[C@@H]2[C@](C)(CO)[C@H](O)CC[C@@]2(C)[C@@H]1/C=C/C1=CC(=C/c2ccc(N(C)C)cc2)/NC1=O", "IC50": 18.1}, {"smiles": "C=C1CC[C@@H]2[C@](C)(CO)[C@H](O)CC[C@@]2(C)[C@@H]1/C=C/C(=C/C(=O)Cc1ccc(Cl)cc1)C(=O)N1CCNCC1", "IC50": 37.8}, {"smiles": "C=C1CC[C@@H]2[C@](C)(CO)[C@H](O)CC[C@@]2(C)[C@@H]1/C=C/C1=CC(=C(C)C)NC1=O", "IC50": "> 50"}, {"smiles": "C=C1CC[C@@H]2[C@](C)(CO)[C@H](O)CC[C@@]2(C)[C@@H]1/C=C/C1=CC(=C/c2ccc(Cl)cc2Cl)/NC1=O", "IC50": 8.52}, {"smiles": "C=C1CC[C@@H]2[C@](C)(CO)[C@H](O)CC[C@@]2(C)[C@@H]1/C=C/C1=CC(=C/c2cccc(Cl)c2)/NC1=O", "IC50": "> 50"}, {"smiles": "C=C1CC[C@@H]2[C@](C)(CO)[C@H](O)CC[C@@]2(C)[C@@H]1/C=C/C1=CC(=C/c2ccc(F)c(F)c2)/NC1=O", "IC50": "> 50"}, {"smiles": "C=C1CC[C@@H]2[C@](C)(CO)[C@H](O)CC[C@@]2(C)[C@@H]1/C=C/C1=CC(=C/c2cccc3ccccc23)/NC1=O", "IC50": 1.34}, {"smiles": "C=C1CC[C@@H]2[C@](C)(CO)[C@H](O)CC[C@@]2(C)[C@@H]1/C=C/C1=CC(=C/c2cc(OC)c(OC)c(OC)c2)/NC1=O", "IC50": 7.27}, {"smiles": "C=C1CC[C@@H]2[C@](C)(CO)[C@H](O)CC[C@@]2(C)[C@@H]1/C=C/C(=C/C(=O)Cc1ccc(Cl)cc1)C(=O)N1CCN(C)CC1", "IC50": "> 50"}, {"smiles": "C=C1CC[C@@H]2[C@](C)(CO)[C@H](O)CC[C@@]2(C)[C@@H]1/C=C/C1=CC(=C/c2ccc(Br)cc2)/NC1=O", "IC50": 5.3}, {"smiles": "C=C1CC[C@@H]2[C@](C)(CO)[C@H](O)CC[C@@]2(C)[C@@H]1/C=C/C1=CC(=C/c2ccccc2C)/NC1=O", "IC50": 1.76}, {"smiles": "C=C1CC[C@@H]2[C@](C)(CO)[C@H](O)CC[C@@]2(C)[C@@H]1/C=C/C(=C/C(=O)Cc1ccc(Cl)cc1)C(=O)N1CCN(C(=O)OC(C)(C)C)CC1", "IC50": 15.8}, {"smiles": "C=C1CC[C@@H]2[C@](C)(CO)[C@H](O)CC[C@@]2(C)[C@@H]1/C=C/C1=CC(=C\\c2ccc(C)cc2)/NC1=O", "IC50": 14.7}, {"smiles": "C=C1CC[C@@H]2[C@](C)(CO)[C@H](O)CC[C@@]2(C)[C@@H]1/C=C/C1=CC(=C2CCCCC2)NC1=O", "IC50": "> 50"}, {"smiles": "C=C1CC[C@@H]2[C@](C)(CO)[C@H](O)CC[C@@]2(C)[C@@H]1/C=C/C1=CC(=C/c2ccc(Cl)cc2)/NC1=O", "IC50": 6.05}, {"smiles": "C=C1CC[C@@H]2[C@](C)(CO)[C@H](O)CC[C@@]2(C)[C@@H]1/C=C/C(=C/C(=O)Cc1ccc(Cl)cc1)C(=O)N1CCCC1", "IC50": "> 50"}, {"smiles": "C=C1CC[C@@H]2[C@](C)(CO)[C@H](O)CC[C@@]2(C)[C@@H]1/C=C/C1=CC(=C/C2CCCCC2)/NC1=O", "IC50": 15.7}, {"smiles": "C=C1CC[C@@H]2[C@](C)(CO)[C@H](O)CC[C@@]2(C)[C@@H]1/C=C/C1=CC(=C/c2ccc(F)cc2)/NC1=O", "IC50": "> 50"}, {"smiles": "C=C1CC[C@@H]2[C@](C)(CO)[C@H](O)CC[C@@]2(C)[C@@H]1/C=C/C(=C/C(=O)Cc1ccc(Cl)cc1)C(=O)N(C)C", "IC50": "> 50"}, {"smiles": "C=C1CC[C@@H]2[C@](C)(CO)[C@H](O)CC[C@@]2(C)[C@@H]1/C=C/C1=CC(=C\\c2ccc(Cl)cc2)/NC1=O", "IC50": 19.2}, {"smiles": "C=C1CC[C@@H]2[C@](C)(CO)[C@H](O)CC[C@@]2(C)[C@@H]1/C=C/C1=CC(=C/c2ccc3ccccc3c2)/NC1=O", "IC50": 2.43}, {"smiles": "C=C1CC[C@@H]2[C@](C)(CO)[C@H](O)CC[C@@]2(C)[C@@H]1/C=C/C1=CC(=C/c2ccccc2Cl)/NC1=O", "IC50": 1.6}, {"smiles": "C=C1CC[C@@H]2[C@](C)(CO)[C@H](O)CC[C@@]2(C)[C@@H]1/C=C/C1=CC(=C/c2ccccc2)/NC1=O", "IC50": 9.56}, {"smiles": "C=C1CC[C@@H]2[C@](C)(CO)[C@H](O)CC[C@@]2(C)[C@@H]1/C=C/C1=CC(=C/c2ccc(C(C)(C)C)cc2)/NC1=O", "IC50": 19.5}, {"smiles": "C=C1CC[C@@H]2[C@](C)(CO)[C@H](O)CC[C@@]2(C)[C@@H]1/C=C/C1=CC(=C/c2cccnc2)/NC1=O", "IC50": 12.3}, {"smiles": "C=C1CC[C@@H]2[C@](C)(CO)[C@H](O)CC[C@@]2(C)[C@@H]1/C=C/C(=C/C(=O)Cc1ccc(Cl)cc1)C(=O)N1CCN(CC)CC1", "IC50": "> 50"}, {"smiles": "C=C1CC[C@@H]2[C@](C)(CO)[C@H](O)CC[C@@]2(C)[C@@H]1/C=C/C(=C/C(=O)Cc1ccc(Cl)cc1)C(=O)N1CCCCC1", "IC50": "> 50"}, {"smiles": "C=C1CC[C@@H]2[C@](C)(CO)[C@H](O)CC[C@@]2(C)[C@@H]1/C=C/C1=CC(=C/c2ccc([N+](=O)[O-])c(Cl)c2)/NC1=O", "IC50": "> 50"}]}]}
